In article PMC6476926, “Dichloro-Phenyl-Benzotriazoles: A New Selective Class of Human Respiratory Syncytial Virus Entry Inhibitors” (Frontiers in Chemistry, 2019):

Experiments:
RSV = experiment: microbe, parasite or virus in culture; format: cell-based, Human Respiratory Syncytial Virus (RSV) strain A2; conditions: human respiratory syncytial virus, Vero 76, read-out: EC50 RSV
HIV-1IIIB = experiment: microbe, parasite or virus in culture; format: cell-based, Human Immunodeficiency Virus type-1 (HIV-1); conditions: Human immunodeficiency virus 1, MT4, read-out: EC50 HIV-1IIIB
BVDV = experiment: microbe, parasite or virus in culture; format: cell-based; conditions: Bovine viral diarrhea virus isolates and strains, MDBK, read-out: EC50 BVDV
YFV = experiment: microbe, parasite or virus in culture; format: cell-based; conditions: Yellow fever virus, BHK, read-out: EC50 YFV
Reo-1 = experiment: microbe, parasite or virus in culture; format: cell-based, Reovirus type-1 (Reo-1); conditions: Reovirus sp., BHK, read-out: EC50 Reo-1
CV-B5 = experiment: microbe, parasite or virus in culture; format: cell-based, Human Enterovirus B [coxsackie type B5 (CV-B5)]; conditions: Enterovirus B, CVB5, Vero 76, read-out: EC50 CV-B5
Sb-1, VSV, VV, HSV-1 = experiment: organism not typed; format: cell-based; conditions: Vero 76, read-out: EC50 Sb-1, VSV, VV, HSV-1
in vitro = conditions: cattle (Bos taurus)
[1] = Cytotoxicity, MTT method, BHK cells; conditions: Syrian hamster (Mesocricetus auratus)
[2] = Cytotoxicity, MTT method, MT-4 cells; conditions: human
[3] = Cytotoxicity, MTT method, Vero-76 cells; conditions: African green monkey (Cercopithecus aethiops)

CC(=O)N(C(C)=O)c1ccc(-n2nc3cc(Cl)c(Cl)cc3n2)cc1 [6d, N-acetyl-N-[4-(5,6-dichloro-2H-benzo[d][1,2,3]triazol-2-yl)phenyl]acetamide]
EC50 (RSV): 40 µM
EC50 (HIV-1IIIB): > 33 µM
EC50 (BVDV): > 100 µM
EC50 (YFV): > 72 µM
EC50 (Reo-1): > 100 µM
EC50 (CV-B5): > 100 µM
EC50 (Sb-1, VSV, VV, HSV-1): > 100 µM
melting point: 224 to 226 °C
CC50 (in vitro): 100 µM
CC50 [1]: 72 µM
CC50 [2]: 33 µM
CC50 at 5 days [3]: > 100 µM

CCC(=O)N(C(=O)CC)c1ccc(-n2nc3cc(Cl)c(Cl)cc3n2)cc1 [6e, N-propionyl-N-[4-(5,6-dichloro-2H-benzo[d][1,2,3]triazol-2-yl)phenyl] propionamide]
EC50 (RSV): 6 µM
EC50 (HIV-1IIIB): > 15 µM
EC50 (BVDV): > 72 µM
EC50 (YFV): > 26 µM
EC50 (Reo-1): > 26 µM
EC50 (CV-B5): 61 µM
EC50 (Sb-1, VSV, VV, HSV-1): > 100 µM
melting point: 238 to 240 °C
CC50 (in vitro): 72 µM
CC50 [1]: 26 µM
CC50 [2]: 15 µM
CC50 at 5 days [3]: > 100 µM

CCCC(=O)N(C(=O)CCC)c1ccc(-n2nc3cc(Cl)c(Cl)cc3n2)cc1 [6f, N-butyryl-N-[4-(5,6-dichloro-2H-benzo[d][1,2,3]triazol-2-yl)phenyl] butyramide]
EC50 (RSV): 6 µM
EC50 (HIV-1IIIB): > 24 µM
EC50 (BVDV): > 84 µM
EC50 (YFV): > 62 µM
EC50 (Reo-1): > 26 µM
EC50 (CV-B5): 33 µM
EC50 (Sb-1, VSV, VV, HSV-1): > 100 µM
melting point: 130 to 133 °C
CC50 (in vitro): 84 µM
CC50 [1]: 62 µM
CC50 [2]: 24 µM
CC50 at 5 days [3]: > 100 µM

O=C(Nc1ccc(-n2nnc3cc(Cl)c(Cl)cc32)cc1)c1ccccc1 [7a, N-[4-(5,6-dichloro-1H-benzo[d][1,2,3]triazol-1-yl)phenil]benzamide]
EC50 (RSV): 60 µM
EC50 (HIV-1IIIB): > 100 µM
EC50 (BVDV): > 100 µM
EC50 (YFV): > 44 µM
EC50 (Reo-1): > 44 µM
EC50 (CV-B5): > 100 µM
EC50 (Sb-1, VSV, VV, HSV-1): > 100 µM
melting point: 250 to 252 °C
CC50 (in vitro): > 100 µM
CC50 [1]: 44 µM
CC50 [2]: > 100 µM
CC50 at 5 days [3]: > 100 µM

Cc1ccc(C(=O)Nc2ccc(-n3nnc4cc(Cl)c(Cl)cc43)cc2)cc1 [7b, N-[4-(5,6-dichloro-1H-benzo[d][1,2,3]triazol-1-yl)phenyl]-4-methylbenzamide]
EC50 (RSV): > 100 µM
EC50 (HIV-1IIIB): > 100 µM
EC50 (BVDV): > 100 µM
EC50 (YFV): > 100 µM
EC50 (Reo-1): > 100 µM
EC50 (CV-B5): > 100 µM
EC50 (Sb-1, VSV, VV, HSV-1): > 100 µM
melting point: 226 to 228 °C
CC50 (in vitro): > 100 µM
CC50 [1]: > 100 µM
CC50 [2]: > 100 µM
CC50 at 5 days [3]: > 100 µM

COc1ccc(C(=O)Nc2ccc(-n3nnc4cc(Cl)c(Cl)cc43)cc2)cc1 [7c, N-[4-(5,6-dichloro-1H-benzo[d][1,2,3]triazol-1-yl)phenyl]-4-methoxybenzamide]
EC50 (RSV): 35 µM
EC50 (HIV-1IIIB): > 33 µM
EC50 (BVDV): > 100 µM
EC50 (YFV): > 100 µM
EC50 (Reo-1): > 100 µM
EC50 (CV-B5): > 100 µM
EC50 (Sb-1, VSV, VV, HSV-1): > 100 µM
melting point: 193 to 195 °C
CC50 (in vitro): > 100 µM
CC50 [1]: > 100 µM
CC50 [2]: 33 µM
CC50 at 5 days [3]: > 100 µM

COc1cc(C(=O)Nc2ccc(-n3nnc4cc(Cl)c(Cl)cc43)cc2)cc(OC)c1OC [7d, N-[4-(5,6-dichloro-1H-benzo[d][1,2,3]triazol-1-yl)phenyl]-3,4,5-trimethoxybenzamide]
EC50 (RSV): 5 µM
EC50 (HIV-1IIIB): > 77 µM
EC50 (BVDV): > 100 µM
EC50 (YFV): 78 µM
EC50 (Reo-1): > 100 µM
EC50 (CV-B5): > 90 µM
EC50 (Sb-1, VSV, VV, HSV-1): > 90 µM
melting point: 212 to 213 °C
CC50 (in vitro): > 100 µM
CC50 [1]: > 100 µM
CC50 [2]: 77 µM
CC50 at 5 days [3]: 90 µM

Cc1ccc(NC(=O)Nc2ccc(-n3nc4cc(Cl)c(Cl)cc4n3)cc2)cc1 [10f, 1-[4-(5,6-dichloro-2H-benzo[d][1,2,3]triazol-2-yl)phenyl]-3-(4-methylphenyl)urea]
EC50 (RSV): > 100 µM
EC50 (HIV-1IIIB): > 100 µM
EC50 (BVDV): > 100 µM
EC50 (YFV): > 100 µM
EC50 (Reo-1): > 100 µM
EC50 (CV-B5): > 100 µM
EC50 (Sb-1, VSV, VV, HSV-1): > 100 µM
CC50 (in vitro): > 100 µM
CC50 [1]: > 100 µM
CC50 [2]: > 100 µM
CC50 at 5 days [3]: > 100 µM

O=C1Nc2ccc(Cl)cc2[C@@](C#CC2CC2)(C(F)(F)F)O1 [EFV, Efavirenz, reference compound]
EC50 (HIV-1IIIB): 0.002 ± 0.0002 µM
CC50 ([2]; MT-4 cells (mock-infected)): 40 µM

Cc1cc(CCCOc2c(C)cc(-c3noc(C(F)(F)F)n3)cc2C)on1 [PCL, Pleconaril, reference compound]
EC50 (CV-B5): 0.005 ± 0.001 µM
CC50 ([3]; Vero-76 cells (mock-infected)): > 100 µM
